The record followed here is US7514445B2, “Heteroaryl amines as glycogen synthase kinase 3β inhibitors (GSK3 inhibitors)” (Janssen Pharmaceutica N.V., priority 2001, dated 2009).

Chain of GSK3β (P49841 whole entry, species assumed): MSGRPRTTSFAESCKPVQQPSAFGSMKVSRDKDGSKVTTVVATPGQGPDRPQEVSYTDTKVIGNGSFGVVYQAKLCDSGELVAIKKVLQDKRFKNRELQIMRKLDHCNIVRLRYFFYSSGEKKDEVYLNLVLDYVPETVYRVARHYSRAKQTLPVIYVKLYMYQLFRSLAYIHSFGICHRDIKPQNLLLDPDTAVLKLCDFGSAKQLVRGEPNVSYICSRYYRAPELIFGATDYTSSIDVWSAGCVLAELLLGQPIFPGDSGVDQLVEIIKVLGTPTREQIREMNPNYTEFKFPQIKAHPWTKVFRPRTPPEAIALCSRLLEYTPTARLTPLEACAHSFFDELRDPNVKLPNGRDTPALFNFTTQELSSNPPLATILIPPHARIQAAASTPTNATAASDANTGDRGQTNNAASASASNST

For the test, the target named is GSK3β (Homo sapiens, UniProt P49841). In words: GSK3beta assay (SPA, phosphorylation of biotinylated phosphorylated CREB peptide, ATP-P33). The class given is biochemical. Conditions: -log IC50 (M); 25° C., 19 nM GSK3β, 5 μM biotinylated phosphorylated CREB peptide, 1 μM ATP, one hour. How it is done:
GSK3beta assays were performed at 25° C. in a 100 μl reaction volume of 25 mM Tris (pH 7.4) containing 10 mM MgCl2, 1 mM DTT, 0.1 mg/ml BSA, 5% glycerol and containing 19 nM GSK3β, 5 μM biotinylated phosphorylated CREB peptide, 1 μM ATP, 2 nM ATP-P^33 and a suitable amount of a test compound of formula (I) or (I′). After one hour, the reaction was terminated by adding 70 μl of Stop mix (1 mM ATP, 18 mg/ml streptavidin coated PVT SPA bead pH 11.0). The beads to which the phosphorylated CREB peptide is attached were allowed to settle for 30 minutes and the radioactivity of the beads was counted in a microtiterplate scintillation counter and compared with the results obtained in a control experiment (without the presence of a test compound) in order to determine the percentage of GSK3β, inhibition. The IC50 value, i.e. the concentration (M) of the test compound at which 50% of GSK3, is inhibited, was calculated from the dose response curve obtained by performing the above-described GSK3β assay in the presence of different amounts of the test compound.
Table 5 lists pIC50 values (-log IC50 (M)) obtained in the above-described test for the present compounds.
As usually defined, the IC50 is the point on the concentration scale where inhibition reaches its midpoint. A high value points to lower potency. `N#Cc1ccc(Nc2nccc(NCc3ccco3)n2)cc1` [Compound 26, 4-[4-[(furan-2-ylmethyl)-amino]-pyrimidin-2-ylamino]-benzonitrile] had an IC50 of 1.55e-06 M.
As to `Cn1ccnc1-c1ccnc(Nc2ccc(C#N)cc2)n1` [Compound 33, 4-[[4-(1-methyl-1H-imidazol-2-yl)-2-pyrimidinyl]amino]-benzonitrile], the IC50 was 7.76e-08 M.
With `CCN1CCCC1CNc1ccnc(Nc2ccc(C#N)cc2)n1` (stereo not shown) [Compound 25] the figure was 1.91e-06 M.
In the case of `Cc1cc(C)c(Nc2ccnc(Nc3ccc4ncccc4c3)n2)c(C)c1` [Compound 20, N^2-quinolin-6-yl-N-4-(2,4,6-trimethyl-phenyl)-2,4-pyrimidinediamine] it was 3.63e-06 M.
With `Cn1ccnc1-c1ccnc(Nc2ccc(C#N)c(OCc3ccccc3)c2)n1` [Compound 6, 4-[[4-(1-methyl-1H-imidazol-2-yl)-2-pyrimidinyl]amino]-2-(phenylmethoxy)-benzonitrile] the figure was 9.77e-08 M; with `N#Cc1ccc(Nc2nccc(C(=O)N3CCNCC3)n2)cc1OCc1ccccc1` [Compound 4], 2.95e-06 M; with `CC1(C)OCC(CNc2ccnc(Nc3ccc(C#N)cc3)n2)O1` (stereo not shown) [Compound 24], 4.37e-06 M.
As to `Cc1cc(C)c(Nc2ccnc(Nc3ccc4c(c3)OCO4)n2)c(C)c1` [Compound 17, N^2-benzo[1,3]dioxol-5-yl-N^4(2,4,6-trimethyl-phenyl)-2,4-pyrimidinediamine], the IC50 was 5.01e-06 M.
With `N#Cc1ccc(Nc2nccc(NCc3cccs3)n2)cc1` [Compound 22, 4-[4-[(thiophen-2-ylmethyl)-amino]-pyrimidin-2-ylamino]-benzonitrile] the figure was 1.82e-06 M.
In the case of `Cc1cc(C)c(Nc2ccnc(Nc3ccc4[nH]ncc4c3)n2)c(C)c1` [Compound 2, N^2-(1H-indazol-5-yl)-N^4-(2,4,6-trimethylphenyl)-2,4-pyrimidinediamine], it took 5.25e-07 M to reach half-maximal inhibition (IC50). This IC50 is about 3.5-fold lower than that of the molecule before.
